The record followed here is patent US11472788B2, “Benzoimidazoles as selective inhibitors of indoleamine 2,3-dioxygenases” (BEIGENE, LTD., priority 2017, dated 2022).

For one assay, the target named is Recombinant IDO1 (Homo sapiens (Human), UniProt P14902). The experiment in a line: IDO1 enzymatic assay. The following applies: 50 nM IDO1, 1.3 mM D-tryptophan, pH 7.5, read-out: Enzyme assay IC50. It is filed as biochemical. As for the experimental part: Recombinant IDO1 was overexpressed and purified from E. coli cells with an N-terminal His tag. IDO1 enzymatic assay was carried out using a methodology similar to described in the literature (J. Biol. Chem. (1980), 255, 1339-1345). The reaction mixture contains 50 nM IDO1, 1.3 mM D-tryptophan, 5 mM L-ascorbic acid, […] methylene Blue, 0.4 mg/mL catalase and compound (or DMSO) in a buffer containing 50 mM potassium phosphate pH 7.5 and 0.1% BSA. After incubation at 24° C. for 1.5 hours, absorbance of the reaction mixture was continuously read at 321 nm to monitor the formation of N′-formylkynurenine by a FULOstar OMEGA plate reader (BMG LABTECH) for 1 hour. The enzymatic activity was determined by measuring the slope of the linear absorbance increase as a function of time. The IC50s are calculated based on remaining enzyme activity in the presence of increasing concentrations of compounds.
Sequence of Recombinant IDO1 (P14902 whole entry, species assumed): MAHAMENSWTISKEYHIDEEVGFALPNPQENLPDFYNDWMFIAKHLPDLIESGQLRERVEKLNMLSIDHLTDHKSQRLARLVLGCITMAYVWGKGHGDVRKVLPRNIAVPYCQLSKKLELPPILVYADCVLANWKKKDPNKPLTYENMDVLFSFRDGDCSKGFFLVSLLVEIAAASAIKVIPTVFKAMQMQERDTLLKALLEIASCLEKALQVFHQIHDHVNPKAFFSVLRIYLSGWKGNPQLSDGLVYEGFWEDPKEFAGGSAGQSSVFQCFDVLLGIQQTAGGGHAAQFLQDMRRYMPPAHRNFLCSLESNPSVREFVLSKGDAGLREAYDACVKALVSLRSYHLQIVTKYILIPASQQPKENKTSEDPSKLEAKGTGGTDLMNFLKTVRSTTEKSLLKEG
Broadly, the IC50 is the concentration at which inhibition is half-maximal. As to “4-((1s,4s)-4-((5-chloro-1H-benzo[d]imidazol-2-yl)methyl)cyclohexyl)-6-fluoroquinoline [Example A1b]”, the concentration for half-maximal inhibition (IC50) is above 10000 nM.
On the same count and under the same terms, then `Fc1ccc2nccc(C3CCC(Cc4nc5cc(Cl)ccc5[nH]4)CC3)c2c1` (stereo not shown) [Example A1a, 4-(4-((5-chloro-1H-benzo[d]imidazol-2-yl)methyl)cyclohexyl)-6-fluoroquinoline], with above 10000 nM; and `Cc1ccc2[nH]c(C[C@H]3CC[C@H](c4ccnc5ccc(F)cc54)CC3)nc2c1` [Example A2a, 6-fluoro-4-((1r,4r)-4-((5-methyl-1H-benzo[d]imidazol-2-yl)methyl)cyclohexyl)quinoline], with above 10000 nM.
With `Cc1ccc2[nH]c(C[C@H]3CC[C@@H](c4ccnc5ccc(F)cc54)CC3)nc2c1` [Example A2b, 6-fluoro-4-((1s,4s)-4-((5-methyl-1H-benzo[d]imidazol-2-yl)methyl)cyclohexyl)quinoline], the IC50 is above 10000 nM.
On the same count and under the same terms, then `Fc1ccc2nccc([C@H]3CC[C@H](Cc4nc5cc(C6CC6)ccc5[nH]4)CC3)c2c1` [Example A4a, 4-((1r,4r)-4-((5-cyclopropyl-1H-benzo[d]imidazol-2-yl)methyl)cyclohexyl)-6-fluoroquinoline], with above 10000 nM.

In a further assay the target is cellular IDO1 in HeLa cells (Homo sapiens (Human), UniProt P14902). The experiment in a line: HeLa Cell-Based IDO1 Kyn (Kynurenine) Production Assay. The following applies: IFN-γ induced IDO1, 48 hours incubation, Kyn absorbance at 480 nm. A digest of the protocol: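 Compounds added to HeLa cells together with IFN-γ (100 ng/mL final) and 0.4 mM L-Trp, 48 h at 37 °C. Kynurenine in TCA-deproteinized supernatant measured colorimetrically with 4-(dimethylamino)benzaldehyde at 480 nm; IC50 from four-parameter logistic fit.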
Sequence of cellular IDO1 in HeLa cells (P14902 whole entry): as the sequence (P14902 whole entry, species assumed) above
The term EC50 denotes the concentration giving half of the maximal effect. Read a low EC50 as higher potency in that assay. “4-((1s,4s)-4-((5-chloro-1H-benzo[d]imidazol-2-yl)methyl)cyclohexyl)-6-fluoroquinoline [Example A1b]” came in with an EC50 of 8 nM.
Still for that read-out and setting: then `Fc1ccc2nccc(C3CCC(Cc4nc5cc(Cl)ccc5[nH]4)CC3)c2c1` (stereo not shown) [Example A1a, 4-(4-((5-chloro-1H-benzo[d]imidazol-2-yl)methyl)cyclohexyl)-6-fluoroquinoline], with 51 nM.
Still for that read-out and setting: next, `Cc1ccc2[nH]c(C[C@H]3CC[C@H](c4ccnc5ccc(F)cc54)CC3)nc2c1` [Example A2a, 6-fluoro-4-((1r,4r)-4-((5-methyl-1H-benzo[d]imidazol-2-yl)methyl)cyclohexyl)quinoline]: 241 nM; `Cc1ccc2[nH]c(C[C@H]3CC[C@@H](c4ccnc5ccc(F)cc54)CC3)nc2c1` [Example A2b, 6-fluoro-4-((1s,4s)-4-((5-methyl-1H-benzo[d]imidazol-2-yl)methyl)cyclohexyl)quinoline]: 53 nM.
On the same count and under the same terms, then `Fc1ccc2nccc([C@H]3CC[C@H](Cc4nc5cc(C6CC6)ccc5[nH]4)CC3)c2c1` [Example A4a, 4-((1r,4r)-4-((5-cyclopropyl-1H-benzo[d]imidazol-2-yl)methyl)cyclohexyl)-6-fluoroquinoline], with 131 nM; and `C[C@@H](c1nc2c(F)cc(F)c(Cl)c2[nH]1)[C@H]1CC[C@@H](c2ccnc3ccc(F)cc32)CC1` [Example B204, 4-((1R,4s)-4-((S)-1-(7-chloro-4,6-difluoro-1H-benzo[d]imidazol-2-yl)ethyl)cyclohexyl)-6-fluoroquinoline], with 6.79 nM; and `C[C@@H](c1nc2c(F)cc(F)c(Cl)c2[nH]1)[C@H]1CC[C@H](c2ccnc3ccc(F)cc32)CC1` [Example B205, 4-((1R,4r)-4-((R)-1-(7-chloro-4,6-difluoro-1H-benzo[d]imidazol-2-yl)ethyl)cyclohexyl)-6-fluoroquinoline], with 28.9 nM.
As to `Cc1cc(C(=O)NC2CCC2)cc2[nH]c(C(C)C3CCC(c4ccnc5ccc(F)cc45)CC3)nc12` (stereo not shown) [Example B206, N-cyclobutyl-2-(1-(4-(6-fluoroquinolin-4-yl)cyclohexyl)ethyl)-4-methyl-1H-benzo[d]imidazole-6-carboxamide], the EC50 was 27.1 nM.
The same measure, in the same setting: then `COC(=O)c1ccc(C(F)(F)F)c2[nH]c(C(C)[C@H]3CC[C@@H](c4ccnc5ccc(F)cc54)CC3)nc12` (stereo partly shown) [Example B207], with 18.4 nM; and `COC(=O)c1cccc2[nH]c([C@H](C)[C@H]3CC[C@@H](c4ccnc5ccc(F)cc54)CC3)nc12` [Example B210, methyl 2-((R)-1-((1s,4S)-4-(6-fluoroquinolin-4-yl)cyclohexyl)ethyl)-1H-benzo[d]imidazole-4-carboxylate], with 26.6 nM.
Same read-out and setting: next, `C[C@H](c1nc2c(ccc3ccccc32)[nH]1)[C@H]1CC[C@@H](c2ccnc3ccc(F)cc32)CC1` [Example B211, 2-((S)-1-((1s,4R)-4-(6-fluoroquinolin-4-yl)cyclohexyl)ethyl)-3H-naphtho[1,2-d]imidazole]: 1.3 nM.
Same read-out and setting: next, `C[C@@H](c1nc2c(ccc3ccccc32)[nH]1)[C@H]1CC[C@H](c2ccnc3ccc(F)cc32)CC1` [Example B212, 2-((R)-1-((1r,4R)-4-(6-fluoroquinolin-4-yl)cyclohexyl)ethyl)-3H-naphtho[1,2-d]imidazole]: 27.9 nM.
In turn, `COCCNC(=O)c1ccc2[nH]c(C(C)[C@H]3CC[C@@H](c4ccnc5ccc(F)cc54)CC3)nc2c1` (stereo partly shown) [Example B216, 2-(1-((1s,4s)-4-(6-fluoroquinolin-4-yl)cyclohexyl)ethyl)-N-(2-methoxyethyl)-1H-benzo[d]imidazole-5-carboxamide] showed an EC50 of 62.9 nM.
Still for that read-out and setting: next, `Cc1noc(-c2ccc3[nH]c(C(C)[C@H]4CC[C@@H](c5ccnc6ccc(F)cc65)CC4)nc3c2)n1` (stereo partly shown) [Example B217]: 1.2 nM; `Cc1noc(-c2ccc3nc([C@H](C)[C@H]4CC[C@@H](c5ccnc6ccc(F)cc65)CC4)[nH]c3c2)n1` [Example B220, 5-(2-((R)-1-((1s,4S)-4-(6-fluoroquinolin-4-yl)cyclohexyl)ethyl)-1H-benzo[d]imidazol-6-yl)-3-methyl-1,2,4-oxadiazole]: 0.96 nM; `Fc1ccc2nccc([C@H]3CC[C@H](c4nc5cc(Cl)ccc5[nH]4)CC3)c2c1` [Example C2a, 4-((1r,4r)-4-(5-chloro-1H-benzo[d]imidazol-2-yl)cyclohexyl)-6-fluoroquinoline]: 74 nM.
Turning to `Fc1ccc2nccc([C@H]3CC[C@@H](c4nc5cc(Cl)ccc5[nH]4)CC3)c2c1` [Example C2b, 4-((1s,4s)-4-(5-chloro-1H-benzo[d]imidazol-2-yl)cyclohexyl)-6-fluoroquinoline], the EC50 came to 11 nM.
Turning to `Cc1ccc2[nH]c(C3CCC(c4ccnc5ccc(F)cc45)CC3)nc2c1` (stereo not shown) [Example C3, 6-fluoro-4-(4-(5-methyl-1H-benzo[d]imidazol-2-yl)cyclohexyl)quinoline], it took 16 nM to reach a half-maximal effect (EC50). This EC50 and that of the compound before are within 1.5-fold of each other.
For `Fc1ccc2nccc(C3CCC(c4nc5cc(Br)ccc5[nH]4)CC3)c2c1` (stereo not shown) [Example C4, 4-(4-(5-bromo-1H-benzo[d]imidazol-2-yl)cyclohexyl)-6-fluoroquinoline], a half-maximal response (EC50) required 9.1 nM.
`Fc1ccc2[nH]c([C@H]3CC[C@H](c4ccnc5ccc(F)cc54)CC3)nc2c1` [Example C5a, 6-fluoro-4-((1r,4r)-4-(5-fluoro-1H-benzo[d]imidazol-2-yl)cyclohexyl)quinoline] returned an EC50 of 1430 nM. Against the preceding compound, the EC50 is about 160-fold higher.
On the same count and under the same terms, then `Fc1ccc2[nH]c([C@H]3CC[C@@H](c4ccnc5ccc(F)cc54)CC3)nc2c1` [Example C5b, 6-fluoro-4-((1s,4s)-4-(5-fluoro-1H-benzo[d]imidazol-2-yl)cyclohexyl)quinoline], with 73 nM; and `Fc1ccc2nccc([C@H]3CC[C@@H](c4nc5cc(C6CC6)ccc5[nH]4)CC3)c2c1` [Example C6b, 4-((1s,4s)-4-(5-cyclopropyl-1H-benzo[d]imidazol-2-yl)cyclohexyl)-6-fluoroquinoline], with 14 nM; and `Fc1ccc2nccc([C@H]3CC[C@H](c4nc5cc(F)c(F)cc5[nH]4)CC3)c2c1` [Example C7a, 4-((1r,4r)-4-(5,6-difluoro-1H-benzo[d]imidazol-2-yl)cyclohexyl)-6-fluoroquinoline], with 1360 nM.
On the same count and under the same terms, then `Fc1ccc2nccc([C@H]3CC[C@@H](c4nc5cc(F)c(F)cc5[nH]4)CC3)c2c1` [Example C7b, 4-((1s,4s)-4-(5,6-difluoro-H-benzo[d]imidazol-2-yl)cyclohexyl)-6-fluoroquinoline], with 70 nM; and `COC(=O)c1ccc2[nH]c([C@H]3CC[C@H](c4ccnc5ccc(F)cc54)CC3)nc2c1` [Example C8a, methyl 2-((1r,4r)-4-(6-fluoroquinolin-4-yl)cyclohexyl)-1H-benzo[d]imidazole-5-carboxylate], with 1200 nM; and `COC(=O)c1ccc2[nH]c([C@H]3CC[C@@H](c4ccnc5ccc(F)cc54)CC3)nc2c1` [Example C8b, methyl 2-((1s,4s)-4-(6-fluoroquinolin-4-yl)cyclohexyl)-1H-benzo[d]imidazole-5-carboxylate], with 37 nM.
As to `NC(=O)c1ccc2[nH]c([C@H]3CC[C@H](c4ccnc5ccc(F)cc54)CC3)nc2c1` [Example C9a, 2-((1r,4r)-4-(6-fluoroquinolin-4-yl)cyclohexyl)-1H-benzo[d]imidazole-5-carboxamide], the EC50 was above 10000 nM.
The same measure, in the same setting: next, `NC(=O)c1ccc2[nH]c([C@H]3CC[C@@H](c4ccnc5ccc(F)cc54)CC3)nc2c1` [Example C9b, 2-((1s,4s)-4-(6-fluoroquinolin-4-yl)cyclohexyl)-1H-benzo[d]imidazole-5-carboxamide]: 1240 nM; `Fc1ccc2nccc(C3CCC(CCc4nc5cc(C6CC6)ccc5[nH]4)CC3)c2c1` (stereo not shown) [Example C10, 4-(4-(2-(5-cyclopropyl-1H-benzo[d]imidazol-2-yl)ethyl)cyclohexyl)-6-fluoroquinoline]: 7 nM; `Fc1ccc2nccc([C@H]3CC[C@@H](CCc4nc5cc(Cl)ccc5[nH]4)CC3)c2c1` [Example C11, 4-((1r,4r)-4-(2-(5-chloro-1H-benzo[d]imidazol-2-yl)ethyl)cyclohexyl)-6-fluoroquinoline]: 12 nM.
On the same count and under the same terms, next, `Clc1ccc2nc(C3CC4CC3CC4c3ccccc3)[nH]c2c1` (stereo not shown) [Example D1, 6-chloro-2-(5-phenylbicyclo[2.2.1]heptan-2-yl)-1H-benzo[d]imidazole]: 1090 nM.
The same measure, in the same setting: next, `Clc1ccc2[nH]c(CCC3CC4CC3CC4c3ccccc3)nc2c1` (stereo not shown) [Example D2, 5-chloro-2-(2-(5-phenylbicyclo[2.2.1]heptan-2-yl)ethyl)-1H-benzo[d]imidazole]: 69 nM.
